Data taken from patent US9708289B2, “Imidazole diketone compound and use thereof” (HINOVA PHARMACEUTICALS INC., priority 2013, dated 2017).

Assays:
[1] = Evaluation of pharmacokinetics in mice; type: in vivo, Kunming mice (KM mice); settings: 10 mg/kg intragastric; for Tmax: Kunming (KM), mouse, po; for Tmax / Cmax: male KM mice, plasma; for Cmax compared with undeuterated compound 10: mice
Method: 10 mg/kg compound 10, 14, 17, 20 were intragastrically administered to Healthy Kunming mice (KM mice), male, weighing 18-20 g. Compounds were dissolved in DMSO:PEG400:H2O 1:5:14. The volume of administration was 10 mL/kg. Before testing, the mice fasted for 12 h and drunk water ad libitum. Then, the mice were fed together at 2 h after administration. 0.3 mL of blood were took from 3 mice through retrobulbar venous plexus at 0.5, 1.0, 2.0, 4.0, 6.0 and 24 h after administration, placed in heparinized tubes, and centrifuged for 5 min at 11000 rpm. The plasma was separated and frozen in a refrigerator at −20° C. 100 uL of serum was transferred with a pipettor into a clean plastic centrifuge tube marked with compound's name and time point, and diluted with acetonitrile (CH3CN) and centrifuged. The concentration of drug was analyzed by LC-MS. Serum was stored at −80° C. before analysis. The pharmacokinetic parameters of deuterated compound (compound 14, 17, and 20) and undeuterated compound (compound 10) were show in following table.

[2] = Evaluation of pharmacokinetics in rats; type: in vivo, SD rats; settings: 10 mg/kg intragastric; for AUCINF_obs / Cmax / Tmax / AUC(0-t) / MRT / half-life: male SD rats, mean, n = 4
Method: 10 mg/kg compound 10, and 14 were intragastrically administered to SD rats male, weighing […]. Compounds were dissolved in DMSO:PEG400:H2O 1:5:14. The volume of administration was 10 mL/kg. Conventional methods were used for the results evaluation.

[3] = tested on: human prostate cancer LNCaP; experiment: Inhibition of the growth of prostate cancer cells (MTT, R1881-stimulated); type: cell-based; settings: for IC50: Homo sapiens, R1881 added, 96 hours, MTT, read-out: IC50, inhibition activity on LNCap/AR cell
Method: The ability of compounds to inhibit the growth of prostate cancer cells was tested:
First, the human prostate cancer LNCaP (purchased from ATCC, USA) was transferred to a RPM11640 culture medium containing 10% charcoal-stripped fetal bovine serum (FBS). After cultured for three days, the cells were digested with 0.25% trypsin and counted through trypan blue staining. The cells were plated, with 100 μL cell suspension containing 4000 cells per well. 200 μL medium was added to the wells around the cell plate for avoiding edge effects.
The next day, 6 drug concentrations was prepared (48.6 μM, 19.44 μM, 7.776 μM, 3.11 μM, 1.24 μM, 0.5 μM) before administration, and 100 μL of corresponding compound at corresponding concentration was added into each well of a cell plate. The cell plate was placed in a cell incubator for 30 min, 10 μL of 4 nM R1881 was added into each well and homogeneously mixed. Upon the addition of R1881, the cell plate was placed in a cell incubator and incubated at 37° C., under 5% CO2 for 96 hours. Afterwards, 40 μL of MTT (prepared in PBS, concentration is 2.5 mg/mL) was added into each wells, and incubated at 37° C. for 2 hours. The supernatant was sucked off, and 100 μL of DMSO was added into each well. The plate was shaken by a vibrator for 10 min for dissolving formazan. The plate was read at 570 nm wavelength using a microplate reader in the unit of OD. The inhibition rate of test compounds was calculated with the following equation: IR (%)=(ODcontrol−ODsample)/(ODcontrol−ODblank)×100%
The inhibition rate curve of test compounds was plotted using the software XLFit (Formula 205), which can calculate the 50% inhibition rate, i.e. IC50.

SMILES | Tmax [1] [h] | Cmax [1] [ng/mL] | Cmax compared with undeuterated compound 10 [1] | AUCINF_obs [2] [ng·h/mL] | Cmax [2] [ng/mL] | Tmax [2] [h] | AUC(0-t) ([2]; rat, in vivo, po) [ng·h/mL] | MRT ([2]; rat, in vivo, po) [h] | half-life ([2]; rat, in vivo, po) [h] | IC50 [3] [nM] | Cmax ([2]; rat, in vivo, po, read-out: Cmax) [ng/mL] | AUC relative to compound 10 ([2]; rats) | Cmax relative to compound 10 ([2]; rats) | half-life compared with compound 10 ([2]; rats) | inhibition on the growth of prostate cancer cell compared with compound 10 [3]
[2H]c1cc(C(=O)NC([2H])([2H])[2H])c(F)c([2H])c1N1C(=S)N(c2cnc(C#N)c(C(F)(F)F)c2)C(=O)C12CCC2 [Compound 20, 4-[7-(6-cyano-5-trifluoromethyl-3-pyridyl)-8-oxo-6-thio-5,7-diazaspiro[3,4]-5-octyl]-3,5-bideuterium-2-fluoro-N-trideuteromethyl-benzamide] | 4 | 3940 | significantly increased |  |  |  |  |  |  |  |  |  |  |  | 
CNC(=O)c1ccc(N2C(=S)N(c3cnc(C#N)c(C(F)(F)F)c3)C(=O)C23CCC3)cc1F [Compound 10, 4-[7-(6-cyano-5-trifluoromethyl-3-pyridyl)-8-oxo-6-thio-5,7-diazaspiro [3, 4]-5-octyl]-2-fluoro-N-methyl-benzamide, reference compound] | 6 | 3320 |  | 14752 | 946.0 | 3.500 | 13100 | 10.7 | 7.38 | 637 |  |  |  |  | 
[2H]C([2H])([2H])NC(=O)c1ccc(N2C(=S)N(c3cnc(C#N)c(C(F)(F)F)c3)C(=O)C23CCC3)cc1F [Compound 14, 4-[7-(6-cyano-5-trifluoromethyl-3-pyridyl)-8-oxo-6-thio-5,7-diazaspiro [3, 4]-5-octyl]-2-fluoro-N-trideuterated methyl-benzamide] | 4 | 4480 | significantly increased | 28729 |  | 3.500 | 24100 | 13 | 8.93 | 280 | 1700 | about 2 fold | about 2 fold | longer half-life | better inhibition
[2H]c1cc(C(=O)NC)c(F)c([2H])c1N1C(=S)N(c2cnc(C#N)c(C(F)(F)F)c2)C(=O)C12CCC2 [Compound 17, 4-[7-(6-cyano-5-trifluoromethyl-3-pyridyl)-8-oxo-6-thio-5,7-diazaspiro [3,4]-5-octyl]-3,5-bideuterium-2-fluoro-N-methyl-benzamide] | 6 | 3480 |  |  |  |  |  |  |  |  |  |  |  |  | 
